Here are results for 20 molecules from patent US8263598B2, “Substituted sulfonamide compounds” (Gruenenthal GmbH, priority 2008, dated 2012).

For assay [1], the target named is T1, human B1R receptor (hB1R) (Homo sapiens, UniProt P46663).
T1 construct: host or cells: CHO K1 cells
T1 sequence (P46663 1-353): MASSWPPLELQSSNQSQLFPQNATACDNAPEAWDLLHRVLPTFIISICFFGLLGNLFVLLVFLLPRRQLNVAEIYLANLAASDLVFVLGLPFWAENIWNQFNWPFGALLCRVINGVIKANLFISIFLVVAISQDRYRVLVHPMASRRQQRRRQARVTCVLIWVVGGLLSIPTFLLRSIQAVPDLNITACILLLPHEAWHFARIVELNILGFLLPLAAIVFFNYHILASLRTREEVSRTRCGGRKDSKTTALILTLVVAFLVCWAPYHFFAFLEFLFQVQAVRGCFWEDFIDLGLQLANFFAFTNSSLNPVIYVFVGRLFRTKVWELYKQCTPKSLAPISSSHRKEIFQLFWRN
Nature of the assay: FLIPR Ca2+ assay on human bradykinin 1 receptor (CHO K1 hB1R cells). It counts as cell-based. To be noted: test substance 10 μM; CHO K1 cells with human B1R gene; agonist Lys-Des-Arg9-bradykinin 0.5 nM; compared to maximum achievable inhibition. In short, it runs like this:
(§1)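 CHO K1 cells stably expressing human or rat B1R were loaded with Fluo-4 and tested at 10 μM compound. Ca²⁺ signal was read in FLIPR as % activation versus agonist. After 10 min, agonist was added (hB1R: Lys-Des-Arg9-bradykinin 0.5 nM; rB1R: Des-Arg9-bradykinin 100 nM), and % inhibition was taken relative to maximum achievable inhibition.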

Assay [2] concerns the target T2, B1R receptor of rats (rB1R) (Rattus norvegicus, UniProt P97583).
T2 construct: host or cells: CHO K1 cells
T2 sequence (P97583 1-337): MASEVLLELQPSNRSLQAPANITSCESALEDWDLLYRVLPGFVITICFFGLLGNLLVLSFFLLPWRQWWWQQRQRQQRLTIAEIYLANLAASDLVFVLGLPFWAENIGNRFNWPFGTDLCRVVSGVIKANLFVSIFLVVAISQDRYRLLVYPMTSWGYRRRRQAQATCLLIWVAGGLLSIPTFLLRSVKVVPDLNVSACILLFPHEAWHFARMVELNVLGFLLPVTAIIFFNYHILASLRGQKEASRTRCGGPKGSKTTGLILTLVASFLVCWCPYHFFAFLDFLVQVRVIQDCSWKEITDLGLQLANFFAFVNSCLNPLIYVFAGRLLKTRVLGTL
Nature of the assay: FLIPR Ca2+ assay on rat bradykinin 1 receptor (CHO K1 rB1R cells). The assay is classed as cell-based. To be noted: test substance 10 μM; CHO K1 cells with B1R gene of rats; agonist Des-Arg9-bradykinin 100 nM; compared to maximum achievable inhibition. In short, it runs like this:
as §1

Broadly, the inhibition is the change of the read-out against control, counted positive when it falls. Turning to `COc1cc(C)c(S(=O)(=O)N(CCOCC(=O)N2CCn3cccc3C2c2cccs2)Cc2ccccc2)c(C)c1` (stereo not shown) [Example 50, N-benzyl-4-methoxy-2,6-dimethyl-N-(2-(2-oxo-2-(1-(thiophen-2-yl)-3,4-dihydropyrrolo[1,2-a]pyrazin-2(1H)-yl)ethoxy)ethyl)benzenesulfonamide], the results for the inhibition at 10 µM in assay [1] and in assay [2] were 48% and 100%, respectively.

In the case of `COc1cc(C)c(S(=O)(=O)N(CCOCC(=O)N2CCn3cccc3C2c2ccc(C)c(C)c2)Cc2ccccc2)c(C)c1` (stereo not shown) [Example 49, N-benzyl-N-(2-(2-(1-(3,4-dimethylphenyl)-3,4-dihydropyrrolo[1,2-a]pyrazin-2(1H)-yl)-2-oxoethoxy)ethyl)-4-methoxy-2,6-dimethylbenzenesulfonamide], the inhibition at 10 µM was 39% in assay [1] and 69% in assay [2].

Regarding `COc1cc(C)c(S(=O)(=O)N(CCOCC(=O)N2CCn3c(CN(C)C)ccc3C2c2ccccc2)Cc2ccccc2)c(C)c1` (stereo not shown) [Example 126, N-benzyl-N-(2-(2-(6-((dimethylamino)methyl)-1-phenyl-3,4-dihydropyrrolo[1,2-a]pyrazin-2(1H)-yl)-2-oxoethoxy)ethyl)-4-methoxy-2,6-dimethylbenzenesulfonamide], the inhibition at 10 µM turned out to be 101% in assay [1] and 102% in assay [2].

For the molecule `COc1cccc(C2c3cccn3CCN2C(=O)COCCN(CC(C)C)S(=O)(=O)c2c(C)cc(OC)c(C)c2C)c1` (stereo not shown) [Example 26, N-isobutyl-4-methoxy-N-(2-(2-(1-(3-methoxyphenyl)-3,4-dihydropyrrolo[1,2-a]pyrazin-2(1H)-yl)-2-oxoethoxy)ethyl)-2,3,6-trimethylbenzenesulfonamide], the inhibition at 10 µM in assay [1] is 34%; in assay [2], 99%.

Regarding `Cc1cc(C)c(S(=O)(=O)N(C)CCOCC(=O)N2CCn3c(CN4CCCC4)ccc3C2c2ccccc2)c(C)c1` (stereo not shown) [Example 140, N,2,4,6-tetramethyl-N-(2-(2-oxo-2-(1-phenyl-6-(pyrrolidin-1-ylmethyl)-3,4-dihydropyrrolo[1,2-a]pyrazin-2(1H)-yl)ethoxy)ethyl)benzenesulfonamide], the results for the inhibition at 10 µM in assay [1] and in assay [2] were 102% and 101%, respectively.

`COc1cc(C)c(S(=O)(=O)N(C)CCOCC(=O)N2CCn3cccc3C2c2cccc(F)c2)c(C)c1` (stereo not shown) [Example 59, N-(2-(2-(1-(3-fluorophenyl)-3,4-dihydropyrrolo[1,2-a]pyrazin-2(1H)-yl)-2-oxoethoxy)ethyl)-4-methoxy-N,2,6-trimethylbenzenesulfonamide]: the inhibition at 10 µM in assay [1] turned out to be 95%; in assay [2], 99%.

With `COc1cc(C)c(S(=O)(=O)N(C)CCOCC(=O)N2CCn3cccc3C2C)c(C)c1` (stereo not shown) [Example 53, 4-methoxy-N,2,6-trimethyl-N-(2-(2-(1-methyl-3,4-dihydropyrrolo[1,2-a]pyrazin-2(1H)-yl)-2-oxoethoxy)ethyl)benzenesulfonamide], the inhibition at 10 µM in assay [1] turned out to be 101%; in assay [2], 99%.

In the case of `COc1cc(C)c(S(=O)(=O)N(CCOCC(=O)N2CCn3cccc3C2CCc2ccccc2)Cc2ccccc2)c(C)c1` (stereo not shown) [Example 125, N-benzyl-4-methoxy-2,6-dimethyl-N-(2-(2-oxo-2-(1-phenethyl-3,4-dihydropyrrolo[1,2-a]pyrazin-2(1H)-yl)ethoxy)ethyl)benzenesulfonamide], the results for the inhibition at 10 µM in assay [1] and in assay [2] were 25% and 78%, respectively.

In the case of `COc1cc(C)c(S(=O)(=O)N(C)CCOCC(=O)N2CCn3c(CCc4ccncc4)ccc3C2)c(C)c1` [Example 172, 4-Methoxy-N,2,6-trimethyl-N-(2-(2-oxo-2-(6-(2-(pyridin-4-yl)ethyl)-3,4-dihydropyrrolo[1,2-a]pyrazin-2(1H)-yl)ethoxy)ethyl)benzenesulfonamide], the inhibition at 10 µM amounted to 100% in assay [1] and 97% in assay [2].

As to `CCCCC1c2ccc(CN(C)C)n2CCN1C(=O)COCCN(Cc1ccccc1)S(=O)(=O)c1c(C)cc(OC)c(C)c1C` (stereo not shown) [Example 120, N-benzyl-N-(2-(2-(1-butyl-6-((dimethylamino)methyl)-3,4-dihydropyrrolo[1,2-a]pyrazin-2(1H)-yl)-2-oxoethoxy)-ethyl)-4-methoxy-2,3,6-trimethyl-benzenesulfonamide], the inhibition at 10 µM in assay [1] was 84%; in assay [2], 92%.

`Cc1cc(C)c(S(=O)(=O)N(C)CCOCC(=O)N2CCn3cccc3C2C)c(C)c1` (stereo not shown) [Example 66, N,2,4,6-tetramethyl-N-(2-(2-(1-methyl-3,4-dihydropyrrolo[1,2-a]pyrazin-2(1H)-yl)-2-oxoethoxy)ethyl)benzenesulfonamide]: the values for the inhibition at 10 µM in assay [1] and in assay [2] were 87% and 92%, respectively.

In the case of `COc1cc(C)c(S(=O)(=O)N(CCOCC(=O)N2CCn3c(CN(C)C)ccc3C2CCc2ccccc2)Cc2ccccc2)c(C)c1C` (stereo not shown) [Example 119, N-benzyl-N-(2-(2-(6-((dimethylamino)methyl)-1-phenethyl-3,4-dihydropyrrolo-[1,2-a]pyrazin-2(1H)-yl)-2-oxoethoxy)ethyl)-4-methoxy-2,3,6-trimethylbenzene-sulfonamide], the values for the inhibition at 10 µM in assay [1] and in assay [2] were 52% and 54%, respectively.

Regarding `COc1cc(C)c(S(=O)(=O)N(CCOCC(=O)N2CCn3c(CN(C)C)ccc3C2Cc2ccccc2)CC(C)C)c(C)c1C` (stereo not shown) [Example 95, N-(2-(2-(1-benzyl-6-((dimethylamino)methyl)-3,4-dihydropyrrolo[1,2-a]pyrazin-2(1H)-yl)-2-oxoethoxy)ethyl)-N-isobutyl-4-methoxy-2,3,6-trimethylbenzene-sulfonamide], the inhibition at 10 µM in assay [1] and in assay [2] was 101% each time.

Take `COc1cc(C)c(S(=O)(=O)N(CCOCC(=O)N2CCn3c(CN4CCCCC4)ccc3C2c2ccccc2)CC(C)C)c(C)c1C` (stereo not shown) [Example 93, N-isobutyl-4-methoxy-2,3,6-trimethyl-N-(2-(2-oxo-2-(1-phenyl-6-(piperidin-1-ylmethyl)-3,4-dihydropyrrolo[1,2-a]pyrazin-2(1H)-yl)ethoxy)ethyl)benzene-sulfonamide]: the inhibition at 10 µM in assay [1] was 103%; in assay [2] it was 102%.

On to `COc1cc(C)c(S(=O)(=O)N(C)CCOCC(=O)N2CCn3cccc3C2c2cccc(C(F)(F)F)c2)c(C)c1` (stereo not shown) [Example 61, 4-methoxy-N,2,6-trimethyl-N-(2-(2-oxo-2-(1-(3-(trifluoromethyl)phenyl)-3,4-dihydropyrrolo[1,2-a]pyrazin-2(1H)-yl)ethoxy)ethyl)benzenesulfonamide], for which the inhibition at 10 µM was 100% in assay [1] and 99% in assay [2].

Regarding `Cc1cc(C)c(S(=O)(=O)N(C)CCOCC(=O)N2CCn3cccc3C2C(C)C)c(C)c1` (stereo not shown) [Example 147, N-(2-(2-(1-isopropyl-3,4-dihydropyrrolo[1,2-a]pyrazin-2(1H)-yl)-2-oxoethoxy)ethyl)-N,2,4,6-tetramethylbenzenesulfonamide], the inhibition at 10 µM in assay [1] and in assay [2] was 103% throughout.

For the molecule `CCC1c2ccc(CN(C)C)n2CCN1C(=O)COCCN(C)S(=O)(=O)c1cc(C)c(OC)c(C)c1C` (stereo not shown) [Example 113, N-(2-(2-(6-((dimethylamino)methyl)-1-ethyl-3,4-dihydropyrrolo[1,2-a]pyrazin-2(1H)-yl)-2-oxoethoxy)ethyl)-4-methoxy-N,2,3,5-tetramethylbenzenesulfonamide], the inhibition at 10 µM stood at 103% in assay [1] and 93% in assay [2].

As to `COc1cc(C)c(S(=O)(=O)N(C)CCOCC(=O)N2CCn3cccc3C2c2ccc(C(F)(F)F)cc2F)c(C)c1` (stereo not shown) [Example 63, N-(2-(2-(1-(2-fluoro-4-(trifluoromethyl)phenyl)-3,4-dihydropyrrolo[1,2-a]pyrazin-2(1H)-yl)-2-oxoethoxy)ethyl)-4-methoxy-N,2,6-trimethylbenzene-sulfonamide], the inhibition at 10 µM in assay [1] is 102%; in assay [2], 100%.

Turning to `COc1cc(C)c(S(=O)(=O)N(CCOCC(=O)N2CCn3cccc3C2c2ccccc2)CC(C)C)c(C)c1C` (stereo not shown) [Example 23, N-isobutyl-4-methoxy-2,3,6-trimethyl-N-(2-(2-oxo-2-(1-phenyl-3,4-dihydropyrrolo[1,2-a]pyrazin-2(1H)-yl)ethoxy)ethyl)benzenesulfonamide], the inhibition at 10 µM in assay [1] worked out at 47%; in assay [2], 97%.

`Cc1cc(C)c(S(=O)(=O)N(C)CCOCC(=O)N2CCn3cccc3C2c2ccc(C(C)(C)C)cc2)c(C)c1` (stereo not shown) [Example 78, N-(2-(2-(1-(4-tert-butylphenyl)-3,4-dihydropyrrolo[1,2-a]pyrazin-2(1H)-yl)-2-oxoethoxy)ethyl)-N,2,4,6-tetramethylbenzenesulfonamide]: the inhibition at 10 µM in assay [1] was 32%; in assay [2] it was 77%.
